According to US20260242418A1, “CYCLIC PEPTIDES WITH ANTIBACTERIAL ACTIVITY AGAINST MULTIDRUG RESISTANT (MDR) PATHOGENS” (priority 2022, published 2026):
Values after ≈ are worked out from the molar mass of the structure shown.

Experiments:
Assay type in all cases: cell-based
Acinetobacter baumannii = tested on: Acinetobacter baumannii
Excerpt: (§1) Minimum Inhibitory Concentration (MIC) of a peptide of SEQ D NO: 4 (abbreviated PLP-3) and colistin against a collection of clinically relevant and commercially available bacterial strains was obtained via broth microdilution. The protocol for antimicrobial activity determination, detailed below, consisted in a modification of Clinical & Laboratory Standards Institute (CLSI) Guidelines.
(§2) MIC is the value defined as the lowest concentration of an antimicrobial, in these tests either PLP-3 or colistin, which inhibits the macroscopic growth of a bacterial strain after 18-22 h incubation at 37° C. The results from these assays are obtained via visual identification of the bacterial bottom at the end of the wells of the testing plate. Since the wells contain decreasing concentrations of the compounds, the final result is indicated as a concentration, MIC, expressed in μg/mL of the agent (in this case PLP-3 or colistin).
(§3) Bacterial strains were streaked in Columbia Agar plates (Columbia Agar with 5% Sheep Blood 90 mm Stacker plates, BD) and incubated overnight at 37° C. Polypropylene round bottomed 96-well plates were filled with 50 μL/well of Mueller-Hinton Broth (MHB, CM0405, 500 g, ThermoFisher Scientific™ Oxoid™) and 50 μL of either colistin or PLP-3 (at 4× the chosen initial concentration of the test) were added to the first well of each row of the plate followed by serial dilutions up until the 10th column of the plate.
(§4) Finally, strain inoculums were prepared by diluting 1:100 0.5 McFarland solutions in MHB. Plates were then inoculated with 50 μL of the inoculums and covered with film before 18 to 22 h incubation at 37 C.
(§5) Three biological and three technical replicates were performed per strain.
(§6) Broth microdilution testing of 15 strains of each species provided MIC50 and […] values (Table 4). Strains were either from clinical origin, relevant to current clinical situation, or commercially available strains belonging to the American Type Culture Collection (ATCC), namely: A. baumannii 17978 and 19606, K. pneumoniae 13883 and P. aeruginosa 27853.
(§7) This panel represents an example of relevant MDR, colistin resistant and colistin susceptible strains from which to compare results. The minimum inhibitory concentration (MIC) is the lowest concentration of a chemical, usually a drug, which prevents visible growth of a bacterium or bacteria. MIC50 represents the antimicrobial concentration value that inhibits the growth of 50% of the bacterial strains and […] of each species from the tested panel of strains. Being colistin both a peptide and a last-resource antibiotic, it was included in these assays for comparison against a commercially available antibiotic.

Klebsiella pneumoniae = tested on: Klebsiella pneumoniae
Excerpt: as §1, §2, §3, §4, §5, §6, §7

Pseudomonas aeruginosa = tested on: Pseudomonas aeruginosa
Excerpt: as §1, §2, §3, §4, §5, §6, §7
P. aeruginosa ATCC 27853 strain (commercially available from the American Type Collection Culture) was used as control by performing MICs to colistin and PLP-3 in all broth microdilution assays

[1] = panel of 15 A. baumannii strains
[2] = panel of 15 K. pneumoniae strains
[3] = panel of 15 P. aeruginosa strains

## CC(C)C[C@@H]1NC(=O)[C@H](CCCNC(=N)N)NC(=O)[C@H](CCCNC(=N)N)NC(=O)[C@H](CCCNC(=N)N)NC(=O)[C@H]2CCCN2C(=O)[C@H](CCCNC(=N)N)NC(=O)[C@H](CCCNC(=N)N)NC(=O)[C@H](C(C)C)NC(=O)[C@@H]2CSSC[C@H](NC1=O)C(=O)N[C@@H](Cc1ccccc1)C(=O)N[C@@H](C(C)C)C(=O)N[C@@H](CCCNC(=N)N)C(=O)N1CCC[C@@H]1C(=O)N[C@@H](CCCCN)C(=O)N[C@@H](Cc1ccccc1)C(=O)N[C@@H](C(C)C)C(=O)N[C@@H](C(C)C)C(=O)N2 [PLP-3, cyclo[RRRLCFVRPKFVVCVRRP]]
Acinetobacter baumannii
  Range of MICs: 1 to 2 µg/mL
Acinetobacter baumannii; [1]
  MIC50: 1 µg/mL (≈ 0.441 µM)
  MIC90: 2 µg/mL (≈ 0.882 µM)
Klebsiella pneumoniae
  MIC range: 2 to 32 µg/mL
Klebsiella pneumoniae; [2]
  MIC50: 4 µg/mL (≈ 1.76 µM)
  MIC90: 16 µg/mL (≈ 7.06 µM)
Pseudomonas aeruginosa
  MIC range: 1 to 8 µg/mL
Pseudomonas aeruginosa; [3]
  MIC50: 4 µg/mL (≈ 1.76 µM)
  MIC90: 8 µg/mL (≈ 3.53 µM)
